According to patent US20250205248A1, “REPURPOSING VARENICLINE AS AN ANTI-INFLAMMATORY AGENT WITH ITS SUPPRESSOR EFFECTS ON INFLAMMATORY CYTOKINES” (IZMIR EKONOMI UNIVERSITESI, priority 2022, published 2025):
Counter-ions that a name gives are not always drawn.

Tests used:
[1] = tested on: LPS-activated RAW264.7 macrophage cell cultures; conditions: cited from earlier work
sepsis = conditions: cited from earlier work
[2] = tested on: RAW 264.7 murine macrophage cells; test: LPS-induced inflammatory cytokine levels (IL-1β, IL-6, TNFα) by ELISA in RAW 264.7 cells; assay type: cell-based; conditions: for IL-1β level in presence of nAChR antagonist / IL-6 level in presence of nAChR antagonist / TNFα level in presence of nAChR antagonist: antagonist 30 minutes before varenicline and LPS, compared to varenicline-treated groups
Protocol: RAW 264.7 murine macrophage cells maintained in culture media supplemented with heat inactivated FBS (10%) and penicillin (100 U/ml) and streptomycin (100 μg/ml) at 37° C. in a 5% CO2 incubator were used during the experimental studies. The cells (500,000/well) were seeded in 48-well culture plates after detachment with scraping incubated for 24 h in serum-free media for reattachment to the surface. In the first group, the cells were treated with LPS at increasing concentrations to determine the effective concentration at which cytokines are released. In the second group, the cells were pretreated with varenicline tartarate with increasing concentrations in presence of LPS to determine effective varenicline concentration on LPS-induced cytokine levels. Additionally, the anti-inflammatory effect of varenicline was compared with that of dexamethasone. In the third group, a non-selective nicotinic ACh receptor antagonist mecamylamine hydrochloride and a selective α7nAChR antagonist methyllycaconitine citrate were applied prior to varenicline and LPS administration in order to investigate the involvement of nicotinic receptors.
The inflammatory response of macrophage cells was evaluated by the change in inflammatory cytokine levels (IL-1β, IL-6 and TNFα) after 24 hours. In other groups where the effect of varenicline will be investigated, the LPS concentration, which triggers the increase in all cytokines determined in the first group and employed for the induction of inflammatory response. Increasing concentrations of varenicline were administered 30 minutes before LPS administration, LPS-induced cytokine levels were analyzed at the end of 24-hour protocol and the effective concentration on cytokine levels were determined in the second group. The effective concentration of varenicline was used in the third group in which the receptor-mediated effects investigated.
(§1) Antagonist drugs was applied 30 minutes before varenicline and LPS applications. Thus, the role of α7nAChRs and activation of the cholinergic anti-inflammatory pathway was determined at the end of 24-hour protocol by examining LPS-induced inflammatory cytokine levels (IL-1β, IL-6 and TNFα) in addition to 40 different cytokines and chemokines.
(§2) The results are as follows for the application of the invention. (1) Cytokine levels (IL-1β, IL-6 and TNFα) examined by the ELISA method were increased at the end of 24-hour protocol after induced by LPS in RAW 264.7 cells.

α4β2nAChRs = α4β2nAChRs (Homo sapiens, UniProt P17787+P43681); conditions: central nervous system; cited from earlier work
[3] = tested on: emphysema induced by porcine pancreatic elastase; conditions: mice, PPE emphysema, cited from earlier work
α7nAChRs = α7nAChRs (Homo sapiens, UniProt P36544); conditions: cited from earlier work
[4] = tested on: RAW 264.7 murine macrophage cells; test: LPS-induced cell proliferation; assay type: cell-based
Protocol: (§3) Here, in the application subject invention, the anti-inflammatory potential of varenicline, which is used in the treatment of smoking cessation, was determined for the first time by suppressing increased cytokine levels in inflammatory conditions. According to the current study, the anti-inflammatory activity of varenicline is not limited to its suppression of cytokine levels, but is also associated with suppressed proliferation and macrophage migration rates (FIGS. 4A-6C).
FIGS. 4A-4B. Effects of varenicline on LPS-induced cell proliferation in the presence or absence of nAChR antagonists.
(§4) This invention points out repurposing of varenicline and provides mechanical insights about the effects of varenicline on α7nAChR-mediated activation of cholinergic anti-inflammatory pathway (CAP), cell proliferation, and migration in the in vitro inflammation model induced by LPS.

RAW 264.7 macrophages = test: LPS-induced cytokine and chemokine panel in RAW 264.7 macrophages; assay type: cell-based, mouse
Protocol: FIGS. 6A-6C. Effects of varenicline on LPS-induced 14 mouse cytokines levels in RAW 264.7 macrophages.
as §1, §2

[5] = tested on: transient middle cerebral artery ischemia model; conditions: mice, treatment for one week, cited from earlier work
smokers = conditions: 3 months of treatment; cited from earlier work
[6] = tested on: RAW 264.7 murine macrophage cells; test: LPS-induced macrophage migration; assay type: cell-based
Protocol: as §3
FIGS. 5A-5B. Effects of varenicline on LPS-induced cell migration in the presence or absence of nAChR antagonists
as §4

[7] = tested on: RAW 264.7 macrophage cells stimulated with LPS; conditions: via α7nAChR activation; LPS-stimulated RAW 264.7; cited from earlier work
[8] = varenicline 30 minutes before LPS, 24-hour protocol, compared to the LPS group

Chain of α7nAChRs (P36544 23-502): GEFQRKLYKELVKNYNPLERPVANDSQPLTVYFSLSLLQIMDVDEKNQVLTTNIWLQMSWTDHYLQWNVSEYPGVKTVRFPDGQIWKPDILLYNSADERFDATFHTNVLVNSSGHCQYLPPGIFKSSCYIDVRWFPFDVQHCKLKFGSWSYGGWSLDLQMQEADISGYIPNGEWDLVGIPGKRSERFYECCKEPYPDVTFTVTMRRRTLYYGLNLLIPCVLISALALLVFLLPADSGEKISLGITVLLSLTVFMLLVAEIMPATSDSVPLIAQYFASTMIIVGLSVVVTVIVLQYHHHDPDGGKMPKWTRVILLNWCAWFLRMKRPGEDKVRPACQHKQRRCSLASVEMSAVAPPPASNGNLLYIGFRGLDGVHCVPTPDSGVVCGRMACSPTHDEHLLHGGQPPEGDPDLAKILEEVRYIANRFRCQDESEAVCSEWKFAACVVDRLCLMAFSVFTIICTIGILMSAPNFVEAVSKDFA
Chain of α4β2nAChRs (P43681 29-627 limits assumed): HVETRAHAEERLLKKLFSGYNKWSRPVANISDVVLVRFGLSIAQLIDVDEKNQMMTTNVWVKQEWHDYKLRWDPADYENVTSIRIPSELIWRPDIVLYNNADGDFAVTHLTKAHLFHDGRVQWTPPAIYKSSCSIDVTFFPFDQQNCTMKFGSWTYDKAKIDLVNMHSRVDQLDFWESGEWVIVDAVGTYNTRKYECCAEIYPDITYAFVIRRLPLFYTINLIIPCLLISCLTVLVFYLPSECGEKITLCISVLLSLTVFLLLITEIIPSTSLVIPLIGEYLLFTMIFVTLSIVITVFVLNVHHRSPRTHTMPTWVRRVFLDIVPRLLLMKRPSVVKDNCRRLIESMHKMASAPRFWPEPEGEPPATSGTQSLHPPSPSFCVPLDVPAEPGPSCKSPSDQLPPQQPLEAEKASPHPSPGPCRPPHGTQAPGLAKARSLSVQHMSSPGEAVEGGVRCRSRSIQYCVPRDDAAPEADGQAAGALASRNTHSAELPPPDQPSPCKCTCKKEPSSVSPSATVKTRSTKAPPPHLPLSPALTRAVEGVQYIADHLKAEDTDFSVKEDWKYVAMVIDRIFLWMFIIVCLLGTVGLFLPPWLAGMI
Chain of α4β2nAChRs (P17787 26-502): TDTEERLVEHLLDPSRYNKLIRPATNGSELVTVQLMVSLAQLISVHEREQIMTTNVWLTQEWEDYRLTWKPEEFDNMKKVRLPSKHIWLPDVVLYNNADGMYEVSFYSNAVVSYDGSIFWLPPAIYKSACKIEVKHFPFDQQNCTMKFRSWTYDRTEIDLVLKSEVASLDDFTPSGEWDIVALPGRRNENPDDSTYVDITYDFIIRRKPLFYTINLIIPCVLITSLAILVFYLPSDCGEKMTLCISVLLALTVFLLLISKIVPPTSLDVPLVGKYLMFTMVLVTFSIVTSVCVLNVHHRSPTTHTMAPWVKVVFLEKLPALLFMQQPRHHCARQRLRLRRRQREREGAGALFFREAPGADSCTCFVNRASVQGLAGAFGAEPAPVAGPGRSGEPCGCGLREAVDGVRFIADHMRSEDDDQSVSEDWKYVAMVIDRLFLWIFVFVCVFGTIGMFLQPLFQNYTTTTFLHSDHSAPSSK

COc1ccc(/C=C2\CCCN=C2c2cccnc2)c(OC)c1 [GTS-21]
HMGB-1 level [1]: significantly reduces | TNFα level [1]: significantly reduces | cytokine levels that increased due to inflammation (sepsis): decreased | life span of experimental animals (sepsis): extended

CNC1(C)C2CCC(C2)C1(C)C (stereo not shown) [MEC, mecamylamine hydrochloride]
IL-1β level in presence of nAChR antagonist [2]: significantly increased | IL-6 level in presence of nAChR antagonist [2]: significantly increased | TNFα level in presence of nAChR antagonist [2]: significantly increased

c1cnc2cc3c(cc2n1)[C@@H]1CNC[C@H]3C1 [Varenicline, varenicline]
effect on α4β2nAChRs (α4β2nAChRs): partial agonistic effect | IL-1β level [2, 8]: significantly decreased | IL-6 level [2, 8]: significantly decreased | TNFα level [2, 8]: significantly decreased | inflammation ([3]; immunohistochemical analysis): reduce | number of T cells in tissue ([3]; with activation of α7nAChR): significantly reduced | number of macrophages in tissue ([3]; with activation of α7nAChR): significantly reduced | number of neutrophils in tissue ([3]; with activation of α7nAChR): significantly reduced | effect on α7nAChRs (α7nAChRs): potent and complete agonist | proliferation rate [4]: suppressed | LPS-induced 14 different cytokines and chemokines (G-CSF, GM-CSF, IL-1, IL-6, IL-27, IL-1ra, IP-10, MCP-1, MIP-1, RANTES, TNF α) (RAW 264.7 macrophages): significantly decreased | use of damaged forelimbs [5]: increased | inflammation in the corpus striatum ([5]; immunohistochemical analysis): decreased | atherosclerosis (smokers): reduced | endothelial damage (smokers): reduced | oxidative stress (smokers): reduced | macrophage migration rate [6]: suppressed

CN1CCCC1c1cccnc1 (stereo not shown) [nicotine]
TNFα levels [7]: decrease

methyllycaconitine citrate [MLA]
IL-1β level in presence of nAChR antagonist [2]: significantly increased | IL-6 level in presence of nAChR antagonist [2]: significantly increased | TNFα level in presence of nAChR antagonist [2]: significantly increased
